Converted amounts (≈) assume the structure as drawn. Marks after values point to notes of the source that are not given here.
Experiments:
[1] = tested on: Erythema induced by UVB radiation in mouse; experiment: Photoprotection: erythema induced by UVB radiation in mouse skin; type: in vivo; design: key to Erythema induced by UVB radiation in mouse: presence (+); absence (-); conditions: 0.5% gel topical, about 2.5 kJ/m^2 UVB, 24 hours after exposure; for % Protection: percentage of protected animals
Excerpt: The effect of p-nitrolophine and m-nitrolophine on erythema due to exposing the mouse skin to an irradiation source at maximum in the UVB region has been studied in these assays. The results obtained have been compared with the effect of 4-methylbenzylidene camphor (P5000) a substance considered as a UVB solar filter and with the effect of butyl methoxydibenzoylmethane (P1789) an UVA type filter, both products being commonly used in antisolar cosmetics.
35 male mice weighing more than 20 grams have been used. After receiving them, the animals were acclimated for 7 days at the place where the assays were preformed, they were being placed in a cage with controlled temperature (22°C), with relative humidity between 50% and 75%, replacing fresh filtered air approximately 10 times per hour and with 12 h light/dark cycles (7.00 - 19.00 light and from 19.00 to 7.00 dark). For this period and during the experimental period, the animals were fed ad libitum with standard diet for rodents and running water as drink.
The animals were randomly distributed into 4 experimental groups according to Table 7. The products to be tested were directly used, applying them in the form of a gel on an area of the skin such that each animal form its own control.
The test was performed following the method described by Winder et al. ["A study of Pharmacological influences on ultraviolet erythema in guinea pigs". Arch. Int Pharmacodyn, 116:261-292; 1958] and by other authors [Wendy et al. "The local antinociceptive and topical antiinflamatory effects of propyl gallate in rodents". Br. J. Pharmacol, 58:573 -581; 1976; Katiyar et al. "Protective Effects of Silymarin Against Photocarcinogenesis in a Mouse Skin Model". J Natl Cancer Inst 89:556-65; 1997] with slight modifications. The day […] the assay, as much hair as possible were removed from the animals by applying a layer of commercial hair-removing cream to remove all the trace of hair and to leave the skin of the back completely bare. The rest of the hair-removing cream were removed by means of washing and rinsing with running water and the animals were the returned to their corresponding cages where they remained until the following day.
On the day of the assay, the substances to be assayed were blindly applied on the back of the previously labelled animals following a random pattern (randomized). After applying the corresponding treatments, the animals were placed and pinned to the presentation platform of the equipment. The animals were then placed 8 cm from an ultraviolet light source of 4*40w with 313 nm of fundamental emission and a range comprised approximately between 290 and 350 nm and with an anti-UVC filter. The emission spectrum of said light source is depicted in Figure 1.
The exposure was maintained until all the animals have received an approximate total dose of 2.5 kJ/m^2. The dose of irradiation applied was determined by means of a ultraviolet light detector, the response curve of which is shown in Figure 2.
Twenty four hours after ending the exposure, the back of the animals was photographed and they were returned to their cages. The evaluation of erythema was performed by means of a positive/negative criterion, the percentage of protected animals being obtained. The statistic significance of the difference was evaluated by means of the non-parametric Fisher Test.

[2] = tested on: MCF-7 breast cancer cell line; experiment: E-Screen cell proliferation test; type: cell-based, human; conditions: MCF-7 cells; for Proliferative effect (PE) Mean: 144 hours, negative control = 1
Excerpt: The E-Screen proliferation test is based on the use of MCF-7 breast cancer cell line. The MCF-7 cells [which endogenously expressed the estrogen receptor alpha (ERα)], respond to the treatment with estradiol increasing its proliferative rate, synthesizing new proteins and transcribing certain specific genes. […] The test compares the number of cells or the cell proliferation obtained after 6 days of culture. The cells grow in culture medium supplemented with human serum lacking of estrogens, in the presence and/or absence of estradiol as well as of the chemical compounds suspected of having estrogenic activity. The E-Screen test was performed following the methodology previously described by Soto et al. ["An in culture bioassay to assess the estrogenicity of xenobiotics. […] Health Perspect. 103:844-850; 1995]. […] The assay was ended after 144 hours of subculture (exponential phase) after drawing out the medium and fixing the cells for the application of sulforhodamine-B technique. Finally, the cell growth for each experimental group is related to the growth obtained for the negative control (absence of hormone) and with respect to estradiol (positive control). Once the E-Screen test is performed, the maximum cell proliferation rate induced by the compound also known as proliferative effect (PE) was established by calculating the ratio existing between the maximum proliferation rate obtained for the compound and the proliferation rate of the negative control. The proliferation data corresponding with the successive dilutions of the compound were transformed after the application of the correction factor for the dilution of each experimental point, the arithmetic mean of the data obtained being calculated. Another parameter is the relative proliferative efficiency (RPE). […] In this assay, the estrogenicity E-Screen test commonly used to identify the hormonal activity of compounds interacting specifically with the estrogen receptor alpha (ERα), has been used. The assays were performed in triplicate for each concentration (range: 300-0.003 µg/ml) in at least three independent experiments.

[3] = Absorption spectrum in methanol (195 - 400 nm); type: physicochemical; conditions: peak wavelength, 10 mg/ml
Procedure: In order to determine the absorption spectrum, a solution of 10 mg/ml of methanol was prepared from each of the substances. The methanol in turn was used to adjust the zero absorbance in each of the wavelengths in the range of 195 - 400 nm.

[4] = UV spectrum: wavelengths of maximum absorption and absorbance (Cecil 2021 UV-Visible Spectrophotometer); type: physicochemical
[5] = Solubility in organic solvents; type: physicochemical; conditions: methanol, organic solvent or mixture, thermodynamic from solid; MeOH
[6] = tested on: Erythema induced by UVB radiation in mouse; experiment: Photoprotection: erythema induced by UVB radiation in mouse skin; type: in vivo; conditions: intensity of erythema in application area versus surrounding non treated area (subjective criterion); 0.5% gel topical; listed as m-nitrotophine
[7] = Photostability evaluation (irradiation in MeOH, TLC analysis); type: physicochemical; conditions: saturated solution in 200 mL MeOH, 2 hours of irradiation, isolated by column chromatography
Procedure: All the irradiations preformed in the photostability studies were carried out in an ACE 7840 photoreactor using a 450W power ACE 7825 lamp.
The solvent used in the photostability test was methanol [MeOH] (ppa) (250 mL), using a concentration of […] of p-nitrolophine. The solution was irradiated for 2 hours, samples being taken at 10 minutes, 20 minutes, 1 hour and 2 hours, and being dried in a rotating evaporator. Each sample was analyzed by thin layer chromatography (TLC in Silica gel) using petroleum ether:ethyl acetate (4:1) as eluent. The chromatography plates were viewed under a 254 nm lamp and a 366 nm lamp, as well as by means of simultaneous viewing under both lamps (254 and 366 nm).
Specifically, three photoproducts (three blots) could be determined, which were isolated by preparative TLC.
A saturated solution of m-nitrolophine in MeOH was prepared to perform the study since the solubility in this solvent is low (approximately 0.2 mg/mL). Briefly, an amount of m-nitrolophine sufficient to ensure the saturation in 200 mL of MeOH throughout the night was left stirring. The solution was filtered and irradiated for 2 hours, samples of 10 mL being taken at 10 minutes, 20 minutes, 1 hour and 2 hours, and being dried in rotating evaporator. […]

## O=[N+]([O-])c1cccc(-c2nc(-c3ccccc3)c(-c3ccccc3)[nH]2)c1 [m-nitrolophine, 2-(3-nitrophenyl)-4,5-diphenyl-1H-imidazole]
[1]; individual animals No. 1-10
  Erythema induced by UVB radiation in mouse: -
[1]
  % Protection: 100%
[1]; listed as m-nitrotophine
  % Protection: 100%*
[2]; E-Screen, conclusion in words
  estrogenicity: not an estrogenic compound for the receptor alpha
[2]; 3x10^-1 mg/ml
  Proliferative effect (PE) Mean: 1.45
[2]; 3x10^-2 mg/ml
  Proliferative effect (PE) Mean: 1.30
[2]; 3x10^-3 mg/ml
  Proliferative effect (PE) Mean: 1.19
[2]; 3x10^-4 mg/ml
  Proliferative effect (PE) Mean: 1.10
[2]; 3x10^-5 mg/ml
  Proliferative effect (PE) Mean: 1.08
[2]; 3x10^-6 mg/ml
  Proliferative effect (PE) Mean: 1.06
[2]; all the tested concentrations range (300-0.003 µg/ml)
  proliferative effect: lower than 1.5
[3]
  maximum absorption: 309 nm
[4]; absorbance at the maximum of the same line
  UV spectrum A (a.u): 1.194 a.u
[4]; wavelengths of the maximum absorption
  UV spectrum λ (nm): 309.0 nm
[5]
  solubility: ~200 µg/mL (≈ 586 µM)
[6]
  % Suppression: 60 - 80%*
[7]
  photodecomposition product: 5.7 mg
